Test results published in patent publication US20240327374A1, “LENALIDOMIDE PROCESS” (priority 2023, published 2024).

How the values were obtained:
Format in all cases: physicochemical
[1] = Six months stability of crystalline Form SRA: moisture content by KF method
From the text: (§1) Inventors of the present application performed six months stability for the novel crystalline Form SRA according to the following temperature and relative humidity conditions: […]

[2] = Six months stability of crystalline Form SRA: assay / purity by HPLC
From the text: as §1

[3] = Six months stability of crystalline Form SRA: comparative XRPD pattern (polymorphic stability); conditions: after 6 months under 25° C.±2/65±5% RH and 40° C.±2/75±5% RH
From the text: as §1

With `Nc1cccc2c1CN(C1CCC(=O)NC1=O)C2=O` (stereo not shown) [Form SRA, 3-(7-amino-3-oxo-1H-isoindol-2-yl) piperidine-2,6-dione] the “Moisture Content (by KF method) Not more than 0.5% w/w” value ([1]; A = 25° C.±2/65±5% RH, 1M) was 0.22 % w/w, the “Moisture Content (by KF method) Not more than 0.5% w/w” value ([1]; A = 25° C.±2/65±5% RH, 2M) was 0.22 % w/w and the “Moisture Content (by KF method) Not more than 0.5% w/w” value ([1]; A = 25° C.±2/65±5% RH, 3M) was 0.23 % w/w. The “Moisture Content (by KF method) Not more than 0.5% w/w” value ([1]; A = 25° C.±2/65±5% RH, 6M) was 0.23 % w/w, the “Moisture Content (by KF method) Not more than 0.5% w/w” value ([1]; A = 25° C.±2/65±5% RH, Initial) was 0.23 % w/w and the “Moisture Content (by KF method) Not more than 0.5% w/w” value ([1]; B = 40° C.±2/75±5% RH, 1M) was 0.21 % w/w. The “Moisture Content (by KF method) Not more than 0.5% w/w” value ([1]; B = 40° C.±2/75±5% RH, 2M) was 0.22 % w/w, the “Moisture Content (by KF method) Not more than 0.5% w/w” value ([1]; B = 40° C.±2/75±5% RH, 3M) was 0.22 % w/w and the “Moisture Content (by KF method) Not more than 0.5% w/w” value ([1]; B = 40° C.±2/75±5% RH, 6M) was 0.22 % w/w. The “Moisture Content (by KF method) Not more than 0.5% w/w” value ([1]; B = 40° C.±2/75±5% RH, Initial) was 0.23 % w/w, the “Assay (by HPLC; on anhydrous basis) Between 98.0 to 102.0% w/w” value (from here on “Assay … to 102.0% w/w”) ([2]; A = 25° C.±2/65±5% RH, 1M) was 99.50 % w/w and the “Assay … to 102.0% w/w” value ([2]; A = 25° C.±2/65±5% RH, 2M) was 99.41 % w/w. The “Assay … to 102.0% w/w” value ([2]; A = 25° C.±2/65±5% RH, 3M) was 99.55 % w/w, the “Assay … to 102.0% w/w” value ([2]; A = 25° C.±2/65±5% RH, 6M) was 99.47 % w/w and the “Assay … to 102.0% w/w” value ([2]; A = 25° C.±2/65±5% RH, Initial) was 100.38 % w/w. For the same compound, the “Assay … to 102.0% w/w” value ([2]; B = 40° C.±2/75±5% RH, 1M) was 99.77 % w/w, the “Assay … to 102.0% w/w” value ([2]; B = 40° C.±2/75±5% RH, 2M) was 99.64 % w/w and the “Assay … to 102.0% w/w” value ([2]; B = 40° C.±2/75±5% RH, 3M) was 100.02 % w/w. The “Assay … to 102.0% w/w” value ([2]; B = 40° C.±2/75±5% RH, 6M) was 99.47 % w/w, the “Assay … to 102.0% w/w” value ([2]; B = 40° C.±2/75±5% RH, Initial) was 100.38 % w/w and the “HPLC purity retained in the stability study” value ([2]; six months stability study) was “exceeding 99.9 % w/w by HPLC”. The “Crystalline form by comparative XRPD, initial stage vs after stability” value [3] was “crystalline form remains unchanged”.
